# Measurements reported in US10471046B2, “Method for treating, preventing, or reducing the risk of skin infection” (Melinta Subsidiary Corp., priority 2014, dated 2019).
# Test system: S. aureus
# Assay: Minimum inhibitory concentrations (MICs) for S. aureus of exemplary compounds (Table 2)
# Format: cell-based
# Details: Staphylococcus aureus, minimum inhibitory concentrations for S. aureus; read-out: MICs
# Summary of the method: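 MICs (μg/mL) against S. aureus come from microtiter-tray dilution susceptibility testing per NCCLS M7-A5, comparing growth with and without compound.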
row,Structure (SMILES),MIC [µg/mL]
1,"CC(=O)NC[C@H]1CN(c2ccc(-c3ccc(CSc4nc(C)cs4)cc3)c(F)c2)C(=O)O1 [Compound 2031, N-{3-[2-Fluoro-4′-(4-methyl-thiazol-2-ylsulfanylmethyl)-biphenyl-4-yl]-2-oxo-oxazolidin-5-(S)-ylmethyl}-acetamide]",1
2,"CC(=O)NC[C@H]1CN(c2ccc(-c3ccc(CSc4ncc[nH]4)cc3)c(F)c2)C(=O)O1 [Compound 2032, N-{3-[2-Fluoro-4′-(1H-imidazol-2-ylsulfanylmethyl)-biphenyl-4-yl]-2-oxo-oxazolidin-5-(S)-ylmethyl}-acetamide]",1
3,"CC(=O)NC[C@H]1CN(c2ccc(-c3ccc(CSc4ncnn4C)cc3)c(F)c2)C(=O)O1 [Compound 2033, N-{3-[2-Fluoro-4′-(2-methyl-2H-[1,2,4]triazol-3-ylsulfanylmethyl)-biphenyl-4-yl]-2-oxo-oxazolidin-5-(S)-ylmethyl}-acetamide]",1
4,"CC(=O)NC[C@H]1CN(c2ccc(-c3ccc(C[S+]([O-])c4nncs4)cc3)c(F)c2)C(=O)O1 (stereo partly drawn) [Compound 2035, N-{3-[2-Fluoro-4′-([1,3,4]thiadiazole-2-sulfinylmethyl)-biphenyl-4-yl]-2-oxo-oxazolidin-5-(S)-ylmethyl}-acetamide]",1
5,"CC(=O)NC[C@H]1CN(c2ccc(-c3ccc(C[S+]([O-])c4nccs4)cc3)c(F)c2)C(=O)O1 (stereo partly drawn) [Compound 2036, N-{3-[2-Fluoro-4′-(thiazole-2-sulfinylmethyl)-biphenyl-4-yl]-2-oxo-oxazolidin-5-(S)-ylmethyl}-acetamide]",1
6,"CC(=O)NC[C@H]1CN(c2ccc(-c3ccc(C[S+]([O-])c4nc(C)cs4)cc3)c(F)c2)C(=O)O1 (stereo partly drawn) [Compound 2037, N-{3-[2-Fluoro-4′-(4-methyl-thiazole-2-sulfinylmethyl)-biphenyl-4-yl]-2-oxo-oxazolidin-5-(S)-ylmethyl}-acetamide]",1
7,"CC(=O)NC[C@H]1CN(c2ccc(-c3ccc(C[S+]([O-])c4ncc[nH]4)cc3)c(F)c2)C(=O)O1 (stereo partly drawn) [Compound 2038, N-{3-[2-Fluoro-4′-(1H-imidazole-2-sulfinylmethyl)-biphenyl-4-yl]-2-oxo-oxazolidin-5-(S)-ylmethyl}-acetamide]",2
8,"CC(=O)NC[C@H]1CN(c2ccc(-c3ccc(C[S+]([O-])c4ncnn4C)cc3)c(F)c2)C(=O)O1 (stereo partly drawn) [Compound 2039, N-{3-[2-Fluoro-4′-(2-methyl-2H-[1,2,4]triazole-3-sulfinylmethyl)-biphenyl-4-yl]-2-oxo-oxazolidin-5-(S)-ylmethyl}-acetamide]",2
9,"CC(=O)NC[C@H]1CN(c2ccc(-c3ccc(CSc4cnn[nH]4)nc3)c(F)c2)C(=O)O1 [Compound 2040, N-(3-{3-Fluoro-4-[6-(3H-[1,2,3]triazol-4-ylsulfanylmethyl)-pyridin-3-yl]-phenyl}-2-oxo-oxazolidin-5-(S)-ylmethyl)-acetamide]",0.25
10,"CC(=O)NC[C@H]1CN(c2ccc(-c3ccc(/C=N/Nc4ccccn4)cc3)c(F)c2)C(=O)O1 [Compound 2041, N-{3-[2-Fluoro-4′-(pyridin-2-yl-hydrazonomethyl)-biphenyl-4-yl]-2-oxo-oxazolidin-5-(S)-ylmethyl}-acetamide]",1
11,"CC(=O)NC[C@H]1CN(c2ccc(-c3ccc(/C=N/Nc4nccc(C(F)(F)F)n4)cc3)c(F)c2)C(=O)O1 [Compound 2042, N-(3-{2-Fluoro-4′-[(4-trifluoromethyl-pyrimidin-2-yl)-hydrazonomethyl]-biphenyl-4-yl}-2-oxo-oxazolidin-5-(S)-ylmethyl)-acetamide]",128
12,"CC(=O)NC[C@H]1CN(c2ccc(-c3ccc(CNS(=O)(=O)c4cn(C)cn4)cc3)c(F)c2)C(=O)O1 [Compound 2043, N-(3-{2-Fluoro-4′-[(1-methyl-1H-imidazole-4-sulfonylamino)-methyl]-biphenyl-4-yl}-2-oxo-oxazolidin-5-(S)-ylmethyl)-acetamide]",2
13,"CC(=O)NC[C@H]1CN(c2ccc(-c3ccc(CNS(=O)(=O)c4ccc(N5CCOCC5)nc4)cc3)c(F)c2)C(=O)O1 [Compound 2044, N-(3-{2-Fluoro-4′-[(6-morpholin-4-yl-pyridine-3-sulfonylamino)-methyl]-biphenyl-4-yl}-2-oxo-oxazolidin-5-(S)-ylmethyl)-acetamide]",128
14,"CC(=O)NC[C@H]1CN(c2ccc(-c3ccc(CS(=O)(=O)Nc4cccnc4)cc3)c(F)c2)C(=O)O1 [Compound 2045, N-{3-[2-Fluoro-4′-(pyridin-3-ylsulfamoylmethyl)-biphenyl-4-yl]-2-oxo-oxazolidin-5-(S)-ylmethyl}-acetamide]",2
15,"CC(=O)NC[C@H]1CN(c2ccc(-c3ccc(CNn4cnnc4)cc3)c(F)c2)C(=O)O1 [Compound 2046, N-{3-[2-Fluoro-4′-([1,2,4]triazol-4-ylaminomethyl)-biphenyl-4-yl]-2-oxo-oxazolidin-5-(S)-ylmethyl}-acetamide]",1
16,"CC(=O)NC[C@H]1CN(c2ccc(-c3ccc(CSc4ncn[nH]4)cc3)c(F)c2)C(=O)O1 [Compound 2047, N-{3-[2-Fluoro-4′-(2H-[1,2,4]triazol-3-ylsulfanylmethyl)-biphenyl-4-yl]-2-oxo-oxazolidin-5-(S)-ylmethyl}-acetamide]",0.25

# The remaining lines, values ahead:
row,MIC [µg/mL],Structure (SMILES)
1,0.5,"CC(=O)NC[C@H]1CN(c2ccc(-c3ccc(CNNc4ccccn4)cc3)c(F)c2)C(=O)O1 [Compound 2048, N-{3-[2-Fluoro-4′-(N′-pyridin-2-yl-hydrazinomethyl)-biphenyl-4-yl]-2-oxo-oxazolidin-5-(S)-ylmethyl}-acetamide]"
2,2,"CC(=O)NC[C@H]1CN(c2ccc(-c3ccc(CNNC4=NCCN4)cc3)c(F)c2)C(=O)O1 [Compound 2049, N-(3-{4′-[N′-(4,5-Dihydro-1H-imidazol-2-yl)-hydrazinomethyl]-2-fluoro-biphenyl-4-yl}-2-oxo-oxazolidin-5-(S)-ylmethyl)-acetamide]"
3,0.25,"CC(=O)NC[C@H]1CN(c2ccc(-c3ccc(CNc4ccon4)cc3)c(F)c2)C(=O)O1 [Compound 2050, N-{3-[2-Fluoro-4′-(isoxazol-3-ylaminomethyl)-biphenyl-4-yl]-2-oxo-oxazolidin-5-(S)-ylmethyl}-acetamide]"
4,4,"CC(=O)NC[C@H]1CN(c2ccc(-c3ccc(CNS(=O)(=O)c4cccc5cccnc45)cc3)c(F)c2)C(=O)O1 [Compound 2051, N-(3-{2-Fluoro-4′-[(quinoline-8-sulfonylamino)-methyl]-biphenyl-4-yl}-2-oxo-oxazolidin-5-(S)-ylmethyl)-acetamide]"
5,4,"CC(=O)NC[C@H]1CN(c2ccc(-c3ccc(CNc4nc[nH]c4C(N)=O)cc3)c(F)c2)C(=O)O1 [Compound 2055, 5-({4′-[5-(S)-(Acetylamino-methyl)-2-oxo-oxazolidin-3-yl]-2′-fluoro-biphenyl-4-ylmethyl}-amino)-3H-imidazole-4-carboxylic acid amide]"
6,0.25,"CC(=O)NC[C@H]1CN(c2ccc(-c3ccc(/C=N/N4CCOCC4)cc3)c(F)c2)C(=O)O1 [Compound 2056, N-{3-[2-Fluoro-4′-(morpholin-4-yliminomethyl)-biphenyl-4-yl]-2-oxo-oxazolidin-5-(S)-ylmethyl}-acetamide]"
7,1,"CC(=O)NC[C@H]1CN(c2ccc(-c3ccc(CNN4CCN(C)CC4)cc3)c(F)c2)C(=O)O1 [Compound 2057, N-(3-{2-Fluoro-4′-[(4-methyl-piperazin-1-ylamino)-methyl]-biphenyl-4-yl}-2-oxo-oxazolidin-5-(S)-ylmethyl)-acetamide]"
